Test results as given in US8524659B2, “RNA virus-derived peptides with modified side chains” (National Taiwan University, priority 2011, dated 2013).

How the values were obtained:
[1] = tested on: Jurkat cells; test: Fluorescence microscope of live Jurkat cells; type: cell-based; details: 37° C.; for Cellular uptake seen in fluorescence microscopy images: 7 μM peptide, 15 minutes, fetal bovine serum, trypsin 5 minutes, FIG. 1; for Cellular uptake seen in fluorescence microscope images: 30 μM peptide, 5% CO2, 15 minutes, trypsinized 10 minutes, FIG. 7
Procedure: […] After incubation, the suspension was centrifuged at 2200 rpm. The cells were washed with phosphate buffered saline (137 mM NaCl, 2.7 mM KCl, 10 mM sodium phosphate dibasic, 2 mM potassium phosphate monobasic, pH 7.4) twice to remove extracellular peptide. […] Finally, cells were resuspended in 500 μL PBS containing 1 μg/mL propidium iodide. The cells were then examined by a fluorescence microscope (Olympus IX71) (492/517 nm; excitation/observation).

[2] = tested on: Jurkat cells; test: Cellular uptake assay by flow cytometry; type: cell-based; details: for Mean fluorescence intensity: Jurkat cells
Procedure: All apparatuses were sterilized by autoclave sterilizer, and the experimental surfaces were wiped with 70% ethanol. All operations were performed in a laminar flow hood. The number of cells was determined by a hemacytometer. There were 9 squares with 1.0 mm^2 area and 0.1 mm depth in the hemacytometer. The number of cells in the four corner squares was counted and averaged. The average was multiplied by 10^4 to obtain the number of cells in a 1 mL suspension. The cellular uptake experiments were performed using 8×10^5 cells. […] The cells were then washed with PBS (2 g/L KCl, 2 g/L KH2PO4, 80 g/L NaCl, 11.5 g/L Na2PO4) (2×400 μL) to remove the fetal bovine serum which might interfere with the proteolytic activity of trypsin. The cells were then incubated with 0.05% trypsin/EDTA in PBS for 5 minutes to remove the peptides which adhered to the cell surface rather than entry to the cell. The cells were washed with PBS (2×400 μL). The cells were then resuspended in 500λ PBS and transferred into the flow tube. The cells were terminated by adding Triton-X 100 to give the dead control group. Propidium iodide (PI) was added to all samples to stain the dead cells but should not stain the live cells. Fluorescence analysis for the Jurkat cells was performed with a flow cytometer (FACScan, Becton Dickinson Bioscience). The voltage of the photomultiplier tube for forward scatter, side scatter and propidium iodide was set to 270, 470, and 350, respectively. Live cells containing appropriate forward scatter and side scatter values were selected and gated as the P1 region for normal and live cells in the live control group. The minimum propidium iodide fluorescence intensity for the dead cells treated with propidium iodide in the P1 region was set as the threshold value for dead cells. In other words, cells with propidium iodide fluorescence below the threshold value would be deemed live cells. The fluorescence of 6-carboxyfluorescein was considered when the cell morphology was in the P1 region and the propidium iodide fluorescence intensity was lower than the threshold value. The 6-carboxyfluorescein fluorescence intensity was acquired for 10,000 events at room temperature. The data presented are the mean fluorescence intensity for the 10,000 cells. Each experiment was independently repeated at least three times.
Cellular uptake experiments were performed on Jurkat cells, because these cells belonged to a CD4+ helper T cell cancer cell line which was the target of HIV. Jurkat cells were incubated separately with various concentration (7, 30, 60, 120 μM) of Flu-XaaTat for 15 minutes at 37° C. in the presence of fetal bovine serum, and then treated with trypsin to remove cell-surface bound peptide.

[3] = tested on: Jurkat cells; test: MTT assay for determining cell survival; type: cell-based; details: 7 μM and 30 μM peptide, 4 hours, 37° C., FIG. 4
Procedure: The cells were grown to appropriate cell density (roughly 2×10^6 cells/mL) and transferred into new media one day before performing the experiment. For each assay, 8×10^5 cells as determined by a hemocytometer were added into an eppendorf. The cells were centrifuged at 2200 rpm for 5 minutes. The supernatant was removed by suction. Then 200 μL of 7 μM or 30 μM XaaTat peptide was added. The cells were incubated for 4 hours at 37° C. and then centrifuged at 2200 rpm for 5 minutes. The cells were washed with RPMI medium twice, and then 200 μL of 0.5 mg/mL MTT in serum free RPMI buffer was added and incubated at 37° C. for 3.5 hours. The cells were then centrifuged at 4000 rpm for 5 minutes. The supernatant was then transferred to two wells (100 μL each) of a 96-well plate. Then 400 μL DMSO was added to the cells in the assaying eppendorf. The eppendorf was then vortexed for 5 minutes to solubilize the MTT purple crystals, and centrifuged at 2200 rpm for 5 minutes. Then the supernatant was transferred to 4 wells (100 μL each) of the 96-well plate for analysis. The absorbance at 570 was determined for each well using a microplate reader with the absorbance at 655 nm used for background correction. A standard curve was generated using different number of cells (8×10^5, 4×10^5 and 2×10^5). The absorbance for each sample for each peptide at each concentration was then correlated to the number of live cells based on the standard curve.

[4] = target: HIV TAR RNA; test: Gel shift assay (EMSA) with fluorescein-labeled TAR RNA in the presence of poly(dI-dC); type: binding
Procedure: The fluorescein-labeled TAR RNA (F-TAR-RNA) was purchased from Sigma. F-TAR-RNA was dissolved in diethyl pyrocarbonate treated H2O to give a 50 μM solution. Binding assays were performed at room temperature. Peptide and RNA were incubated in pH 7.4 buffer (10 μL) containing Tris-HCl (50 mM), KCl (50 mM), poly-dIdC (10 μg/mL), 2% glycerol, and Triton X-100 (0.05%). The F-TAR-RNA concentration was 100 nM. The samples were analyzed by loading into 12% native polyacrylamide gels in […] and electrophoresis was performed with 140 V at room temperature. Dried gels were scanned by the Typhoon TRIO+ Variable Mode Imager. Bands corresponding to the free and bound RNA were quantified using ImageQuant software. The apparent dissociation constants were globally derived from the quantified data assuming a 1:1 binding stoichiometry.

[5] = target: HIV TAR RNA; test: Fluorescence anisotropy binding of Tat peptides to fluorescein-labeled TAR RNA; details: Table 2; read-out: KD, binding affinity of Tat-peptide and TAR RNA by fluorescence anisotropy assay
Procedure: The binding affinity of XaaTat peptides (Xaa=Agh, Arg and Agb) for TAR RNA was measured by fluorescence anisotropy using a Varian Cary Eclipse fluorescence spectrophotometer. The anisotropy (r) was calculated using the following equation: […]
where Ivv, Ivh, Ihh, Ihv are the fluorescence intensities with the excitation polarizer and emission polarizer is oriented perpendicular (Ivh and Ihv) and parallel (Ivv and Ihh) to the direction of the polarized excitation. The fluorescein-labeled TAR RNA (F-TAR-RNA) was excited at 490 nm and the polarized emissions were monitored at 512 nm. The slits were set at 10 nm for both excitation and emission. The integration time was 20 seconds. All data were measured in a Sub-Micro (Starna Cell, Inc.) with a starting volume of 160 μL. Each addition (1 μL) of XaaTat was equilibrated for two minutes before the fluorescence signal was recorded. All experiments were performed at room temperature in TKT buffer (TKT: 50 mM Tris-HCl, pH 7.4, 20 mM KCl and 0.02% Tween20). The initial concentration of F-TAR-RNA was 25 nM. The TKT solution and peptide stock solution were both equilibrated at room temperature more than 20 minutes before the experiment. The experiment was repeated three times independently. For every single point, three measurements were performed and the average value was used for deriving the apparent (apparent KD). The apparent for the peptide-RNA complex was derived by fitting the data assuming a 1:1 peptide-RNA stoichiometry. The fitting was performed using Kaleidagraph 3.52. (Synergy Software, CA).

[6] = in the presence of poly(dI-dC) at 25° C., Table 3, read-out: KD, dissociation constant of Tat-peptide and TAR RNA by gel shift assay

Row | Compound | Mean fluorescence intensity ([2]; 30 μM peptide) [a.u.] | Mean fluorescence intensity ([2]; 60 μM peptide) [a.u.] | Mean fluorescence intensity ([2]; 90 μM peptide) [a.u.] | Mean fluorescence intensity ([2]; 120 μM peptide) [a.u.] | Cellular uptake seen in fluorescence microscope images [1] | Kd [4, 6] [µM] | Kd [5] [µM] | also measured
1 | 6-carboxyfluorescein-βAla-Tyr-Gly-Agb-Lys-Lys-Agb-Agb-Gln-Agb-Agb-Agb-NH2 [Flu-AgbTat] | – | – | – | – | – | – | – | Cellular uptake seen in fluorescence microscopy images [1]: Obvious cellular uptake; Uptake into cells compared to Flu-ArgTat and Flu-AghTat ([2]; 7 μM peptide, 15 minutes, 37° C., fetal bovine serum, FIG. 2A): 3 times
2 | 6-carboxyfluorescein-βAla-Tyr-Gly-Agh-Lys-Lys-Agh-Agh-Gln-Agh-Agh-Agh-NH2 [Flu-AghTat] | – | – | – | – | – | – | – | Cellular uptake seen in fluorescence microscopy images [1]: Obvious cellular uptake; Cellular uptake compared to Flu-ArgTat ([2]; concentrations higher than 7 μM, FIG. 2B): more cellular uptake
3 | 6-carboxyfluorescein-βAla-Tyr-Gly-Arg-Lys-Lys-Arg-Arg-Gln-Arg-Arg-Arg-NH2 [Flu-ArgTat, reference compound] | 2170 ± 1692 | 5258 ± 2006 | 7042 ± 1475 | 8628 ± 3585 | – | – | – | Cellular uptake seen in fluorescence microscopy images [1]: Obvious cellular uptake
4 | 6CF-βAla-Tyr-Gly-Arg-Lys-Lys-Arg-Arg-Gln-Arg-Arg-Cit-NH2 [6CF-Tat-Cit57] | 465 ± 72 | 1696 ± 167 | 4031 ± 377 | 4964 ± 811 | significant cellular uptake | – | – | –
5 | 6CF-βAla-Tyr-Gly-Arg-Lys-Lys-Arg-Arg-Gln-Arg-Cit-Arg-NH2 [6CF-Tat-Cit56] | 429 ± 95 | 2305 ± 249 | 6094 ± 792 | 11617 ± 1339 | significant cellular uptake | – | – | –
6 | 6CF-βAla-Tyr-Gly-Arg-Lys-Lys-Arg-Arg-Gln-Cit-Arg-Arg-NH2 [6CF-Tat-Cit55] | 793 ± 267 | 5750 ± 134 | 9090 ± 707 | 10152 ± 787 | significant cellular uptake | – | – | –
7 | 6CF-βAla-Tyr-Gly-Arg-Lys-Lys-Arg-Cit-Gln-Arg-Arg-Arg-NH2 [6CF-Tat-Cit53] | 429 ± 19 | 3417 ± 288 | 6499 ± 109 | 10861 ± 1096 | significant cellular uptake | – | – | –
8 | 6CF-βAla-Tyr-Gly-Arg-Lys-Lys-Cit-Arg-Gln-Arg-Arg-Arg-NH2 [6CF-Tat-Cit52] | 1221 ± 116 | 5332 ± 612 | 10040 ± 726 | 12378 ± 972 | significant cellular uptake | – | – | –
9 | 6CF-βAla-Tyr-Gly-Cit-Lys-Lys-Arg-Arg-Gln-Arg-Arg-Arg-NH2 [6CF-Tat-Cit49] | 1791 ± 555 | 6452 ± 740 | 13284 ± 1441 | 15784 ± 1567 | significant cellular uptake | – | – | –
10 | CC(=O)N[C@@H](Cc1ccc(O)cc1)C(=O)NCC(=O)N[C@@H](CCNC(=N)N)C(=O)N[C@@H](CCCCN)C(=O)N[C@@H](CCCCN)C(=O)N[C@@H](CCNC(=N)N)C(=O)N[C@@H](CCNC(=N)N)C(=O)N[C@@H](CCC(N)=O)C(=O)N[C@@H](CCNC(=N)N)C(=O)N[C@@H](CCNC(=N)N)C(=O)N[C@@H](CCNC(=N)N)C(N)=O [AgbTat, Ac-Tyr-Gly-Agb-Lys-Lys-Agb-Agb-Gln-Agb-Agb-Agb-NH2] | – | – | – | – | – | – | – | Cytotoxicity (cell survival) [3]: minimal cytotoxicity
11 | Ac-Tyr-Gly-Arg-Lys-Lys-Arg-Arg-Gln-Arg-Arg-Agp-NH2 [Ac-Agp57-Tat-NH2] | – | – | – | – | – | – | – | Kd ([4]; in the presence of 10 μg/mL poly(dI-dC), FIG. 9, read-out: KD of peptide and TAR-RNA by gel shift assay): 0.056 ± 0.012 µM
12 | Ac-Tyr-Gly-Arg-Lys-Lys-Arg-Arg-Gln-Arg-Arg-Cit-NH2 [Tat-Cit57] | – | – | – | – | – | 0.146 ± 0.03 | 0.049 ± 0.006 | –
13 | Ac-Tyr-Gly-Arg-Lys-Lys-Arg-Arg-Gln-Arg-Cit-Arg-NH2 [Tat-Cit56] | – | – | – | – | – | 0.164 ± 0.04 | 0.055 ± 0.009 | –
14 | Ac-Tyr-Gly-Arg-Lys-Lys-Arg-Arg-Gln-Cit-Arg-Arg-NH2 [Tat-Cit55] | – | – | – | – | – | 0.279 ± 0.074 | 0.099 ± 0.014 | –
15 | Ac-Tyr-Gly-Arg-Lys-Lys-Arg-Cit-Gln-Arg-Arg-Arg-NH2 [Tat-Cit53] | – | – | – | – | – | 0.344 ± 0.073 | 0.102 ± 0.011 | –
16 | Ac-Tyr-Gly-Arg-Lys-Lys-Cit-Arg-Gln-Arg-Arg-Arg-NH2 [Tat-Cit52] | – | – | – | – | – | 0.235 ± 0.045 | 0.116 ± 0.017 | –
17 | Ac-Tyr-Gly-Cit-Lys-Lys-Arg-Arg-Gln-Arg-Arg-Arg-NH2 [Tat-Cit49] | – | – | – | – | – | 0.138 ± 0.021 | 0.094 ± 0.013 | –
